# Laboratory results reported in PubChem BioAssay AID200 (DTP/NCI, 2004).
# “And” between values parts separate entries of the source, which are not always exact repeats. Identical values can stand only once. Inconclusive results and toxic doses are left out. Where a SMILES comes first, the peptide text is derived from it. The star is where a group is joined. Cbz = O=C(OCc1ccccc1)*; Bn = c1ccc(C*)cc1
# Test system: B6C3F1 mice, B16 melanoma ip, median survival T/C
# Assay: NCI In Vivo Anticancer Drug Screen. Data for tumor model B16 Melanoma (intraperitoneal) in B6C3F1 mice
# Conditions: endpoint: median survival time, higher = longer survival
# How it was run: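 Mice bearing transplanted tumor were dosed with compound or vehicle, and survival was recorded. Activity is expressed as the treated-group measurement (T) divided by the vehicle control measurement (C).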
# [1] = dose: 25.0 mg/kg/injection, schedule: Q01DX009 (ip), vehicle: saline
# [2] = dose: 50.0 mg/kg/injection, schedule: Q01DX009 (ip), vehicle: saline
# [3] = dose: 12.5 mg/kg/injection, schedule: Q01DX009 (ip), vehicle: saline
# [4] = dose: 6.0 mg/kg/injection, schedule: Q01DX009 (ip), vehicle: saline with Tween-80
# [5] = dose: 12.5 mg/kg/injection, schedule: Q01DX009 (ip), vehicle: saline with Tween-80
# [6] = dose: 100.0 mg/kg/injection, schedule: Q01DX009 (ip), vehicle: saline with Tween-80
# [7] = dose: 200.0 mg/kg/injection, schedule: Q01DX009 (ip), vehicle: saline with Tween-80
# [8] = dose: 25.0 mg/kg/injection, schedule: Q01DX009 (ip), vehicle: saline with Tween-80
# [9] = dose: 50.0 mg/kg/injection, schedule: Q01DX009 (ip), vehicle: saline with Tween-80
# [10] = dose: 100.0 mg/kg/injection, schedule: Q01DX009 (ip), vehicle: saline
# [11] = dose: 100.0 mg/kg/injection, schedule: Q01DX009 (ip), vehicle: Klucel (hydroxypropylcellulose) (HPC)
# [12] = dose: 6.25 mg/kg/injection, schedule: Q01DX009 (ip), vehicle: saline with Tween-80
# [13] = dose: 10.0 mg/kg/injection, schedule: Q01DX009 (ip), vehicle: distilled water + Tween-80
# [14] = dose: 20.0 mg/kg/injection, schedule: Q01DX009 (ip), vehicle: distilled water + Tween-80
# [15] = dose: 40.0 mg/kg/injection, schedule: Q01DX009 (ip), vehicle: distilled water + Tween-80
structure (smiles),measurement,setting,value
CCC(C(=O)O)C(=O)O.[NH2-].[NH2-].[Pt+2],T/C,"dose: 1.56 mg/kg/injection, schedule: Q01DX009 (ip), vehicle: saline",117 % of control
same,T/C,"dose: 3.12 mg/kg/injection, schedule: Q01DX009 (ip), vehicle: saline",102 % of control
same,T/C,"dose: 6.25 mg/kg/injection, schedule: Q01DX009 (ip), vehicle: saline",102 % of control
same,T/C,[1],154 % of control
same,T/C,[2],102 % of control
COC(=O)[C@@H]1c2cc3c(c(O)c2[C@@H](OC)C[C@@]1(C)O)C(=O)c1c(O)cc2c(c1C3=O)OC1O[C@@]2(C)[C@H](O)[C@@H](N(C)C)[C@@H]1O,T/C,[3],158 % of control
same,T/C,[1],159 % of control
same,T/C,[2],158 % of control
COc1cc2cc(c1Cl)N1CC(=O)C(C)(O)C(=O)N(C)C(C)C(=O)OC(CC1=O)C1(C)OC1C(C)C1CC(O)(NC(=O)O1)C(OC)/C=C\C=C(\C)C2OC (stereo not given),T/C,"dose: 4.0 micrograms/kg/injection, schedule: Q01DX009 (ip), vehicle: distilled water + alcohol",109 % of control
same,T/C,"dose: 8.0 micrograms/kg/injection, schedule: Q01DX009 (ip), vehicle: distilled water + alcohol",93 % of control
same,T/C,"dose: 16.0 micrograms/kg/injection, schedule: Q01DX009 (ip), vehicle: distilled water + alcohol",111 % of control
same,T/C,"dose: 32.0 micrograms/kg/injection, schedule: Q01DX009 (ip), vehicle: distilled water + alcohol",95 % of control
O=C(Nc1ccccc1)c1c(O)[nH]c(=S)[nH]c1=O,T/C,[4],108 % of control
same,T/C,[5],114 % of control and 115 % of control
same,T/C,"dose: 44.0 mg/kg/injection, schedule: Q01DX009 (ip), vehicle: saline with Tween-80",153 % of control
same,T/C,"dose: 56.0 mg/kg/injection, schedule: Q01DX009 (oral), vehicle: saline with Tween-80",111 % of control
same,T/C,"dose: 67.0 mg/kg/injection, schedule: Q01DX009 (ip), vehicle: saline with Tween-80",161 % of control
same,T/C,"dose: 83.0 mg/kg/injection, schedule: Q01DX009 (oral), vehicle: saline with Tween-80",117 % of control
same,T/C,"dose: 100.0 mg/kg/injection, schedule: Q01DX005 (oral), vehicle: saline with Tween-80",110 % of control
same,T/C,"dose: 124.0 mg/kg/injection, schedule: Q01DX009 (oral), vehicle: saline with Tween-80",114 % of control
same,T/C,"dose: 149.0 mg/kg/injection, schedule: Q01DX005 (oral), vehicle: saline with Tween-80",118 % of control
same,T/C,"dose: 185.0 mg/kg/injection, schedule: Q01DX009 (oral), vehicle: saline with Tween-80",121 % of control
same,T/C,"dose: 223.0 mg/kg/injection, schedule: Q01DX005 (oral), vehicle: saline with Tween-80",114 % of control
same,T/C,"dose: 333.0 mg/kg/injection, schedule: Q01DX005 (oral), vehicle: saline with Tween-80",116 % of control
C=CCNC(=O)c1ccccc1SC(C)=O,T/C,"dose: 50.0 mg/kg/injection, schedule: Q01DX009 (ip), vehicle: saline + Tween-80 + alcohol",101 % of control
same,T/C,"dose: 100.0 mg/kg/injection, schedule: Q01DX009 (ip), vehicle: saline + Tween-80 + alcohol",112 % of control and 103 % of control
same,T/C,[6],91 % of control
same,T/C,"dose: 200.0 mg/kg/injection, schedule: Q01DX009 (ip), vehicle: saline + Tween-80 + alcohol",119 % of control
same,T/C,[7],104 % of control
same,T/C,"dose: 400.0 mg/kg/injection, schedule: Q01DX009 (ip), vehicle: saline + Tween-80 + alcohol",114 % of control
same,T/C,"dose: 400.0 mg/kg/injection, schedule: Q01DX009 (ip), vehicle: saline with Tween-80",116 % of control
CCCCOCN(COCCCC)C12CC3CC(CC(C3)C1)C2,T/C,[5],108 % of control and 107 % of control
same,T/C,[8],104 % of control and 105 % of control
same,T/C,[9],109 % of control and 100 % of control
same,T/C,[6],104 % of control and 106 % of control
same,T/C,[7],105 % of control
C(CC1CO1)C1CO1 (stereo not given),T/C,"dose: 2.5 mg/kg/injection, schedule: Q01DX009 (ip), vehicle: Klucel (hydroxypropylcellulose) (HPC)",94 % of control
same,T/C,"dose: 5.0 mg/kg/injection, schedule: Q01DX009 (ip), vehicle: Klucel (hydroxypropylcellulose) (HPC)",101 % of control
same,T/C,"dose: 10.0 mg/kg/injection, schedule: Q01DX009 (ip), vehicle: Klucel (hydroxypropylcellulose) (HPC)",101 % of control
same,T/C,"dose: 20.0 mg/kg/injection, schedule: Q01DX009 (ip), vehicle: Klucel (hydroxypropylcellulose) (HPC)",111 % of control
same,T/C,"dose: 40.0 mg/kg/injection, schedule: Q01DX009 (ip), vehicle: Klucel (hydroxypropylcellulose) (HPC)",107 % of control
same,T/C,"dose: 80.0 mg/kg/injection, schedule: Q01DX009 (ip), vehicle: Klucel (hydroxypropylcellulose) (HPC)",98 % of control
[N-]=[N+]=[N-],T/C,"dose: 1.5 mg/kg/injection, schedule: Q01DX009 (ip), vehicle: saline",101 % of control
same,T/C,"dose: 3.0 mg/kg/injection, schedule: Q01DX009 (ip), vehicle: saline",90 % of control
same,T/C,"dose: 6.0 mg/kg/injection, schedule: Q01DX009 (ip), vehicle: saline",103 % of control
same,T/C,"dose: 12.0 mg/kg/injection, schedule: Q01DX009 (ip), vehicle: saline",108 % of control
CN(C)N=Nc1cccc2c1N(C)c1ccc(F)cc1S2,T/C,"dose: 6.25 mg/kg/injection, schedule: Q01DX009 (ip), vehicle: other",103 % of control
same,T/C,"dose: 12.5 mg/kg/injection, schedule: Q01DX009 (ip), vehicle: other",100 % of control
same,T/C,"dose: 25.0 mg/kg/injection, schedule: Q01DX009 (ip), vehicle: other",108 % of control
same,T/C,"dose: 50.0 mg/kg/injection, schedule: Q01DX009 (ip), vehicle: other",95 % of control
same,T/C,"dose: 100.0 mg/kg/injection, schedule: Q01DX009 (ip), vehicle: other",102 % of control
CC(C)NCC(O)COc1ccc(O)c(O)c1 (stereo not given),T/C,[1],100 % of control and 103 % of control
same,T/C,[2],113 % of control and 106 % of control
same,T/C,[10],109 % of control and 116 % of control
CC(C)CC(NC(=O)OCC1c2ccccc2-c2ccccc21)C(=O)O (stereo not given),T/C,"dose: 25.0 mg/kg/injection, schedule: Q01DX009 (ip), vehicle: Klucel (hydroxypropylcellulose) (HPC)",102 % of control
same,T/C,[11],122 % of control and 101 % of control
Nc1nc(=S)c2ncn(C3OC(COC(=O)c4ccccc4)C(OC(=O)c4ccccc4)C3OC(=O)c3ccccc3)c2[nH]1 (stereo not given),T/C,[12],112 % of control
same,T/C,[5],117 % of control
same,T/C,[8],111 % of control
same,T/C,[9],97 % of control
C=C(C)C(=O)OC1C/C(CO)=C\C(O)C/C(C)=C/C2OC(=O)C(=C)C21 (stereo not given),T/C,"dose: 1.25 mg/kg/injection, schedule: Q01DX009 (ip), vehicle: saline + alcohol",101 % of control
same,T/C,"dose: 2.5 mg/kg/injection, schedule: Q01DX009 (ip), vehicle: saline + alcohol",100 % of control
same,T/C,"dose: 5.0 mg/kg/injection, schedule: Q01DX009 (ip), vehicle: saline + alcohol",114 % of control
same,T/C,"dose: 10.0 mg/kg/injection, schedule: Q01DX009 (ip), vehicle: saline + alcohol",112 % of control
CC(C)NC(=O)OCc1c(COC(=O)NC(C)C)c(-c2ccc(Cl)c(Cl)c2)n2c1CC(OC(=O)CN(C)C)C2 (stereo not given),T/C,[13],152 % of control and 153 % of control
same,T/C,[14],152 % of control and 168 % of control
same,T/C,[15],174 % of control and 190 % of control
COc1cccc2c1C(=O)c1c(O)c3c(c(O)c1C2=O)C[C@@](O)(C(C)=O)C[C@@H]3OC1CC(N2CCOCC2)C(O)C(C)O1 (stereo not given in full),T/C,"dose: 0.06 mg/kg/injection, schedule: Q01DX001 (ip), vehicle: water",120 % of control
same,T/C,"dose: 0.12 mg/kg/injection, schedule: Q01DX001 (ip), vehicle: water",123 % of control
same,T/C,"dose: 62.5 micrograms/kg/injection, schedule: Q01DX001 (ip), vehicle: water",113 % of control
same,T/C,"dose: 125.0 micrograms/kg/injection, schedule: Q01DX001 (ip), vehicle: water",122 % of control
CC(C)C(NC(=O)OC(C)(C)C)C(=O)O (stereo not given),T/C,[11],90 % of control
Cc1ccc(C)c2c1CCC2C (stereo not given),T/C,[9],93 % of control
same,T/C,[6],86 % of control
CC(C)C(NC(=O)C(CSCc1ccccc1)NC(=O)OCc1ccccc1)C(=O)O (stereo not given) (Cbz-Cys(Bn)-Val-OH; configuration not given here),T/C,[11],93 % of control
same,T/C,"dose: 200.0 mg/kg/injection, schedule: Q01DX009 (ip), vehicle: Klucel (hydroxypropylcellulose) (HPC)",98 % of control
CC(=O)c1ccc([NH-])c([NH-])c1.[Cl][Pt+2][Cl],T/C,"dose: 2.5 mg/kg/injection, schedule: Q01DX009 (ip), vehicle: distilled water + Tween-80",116 % of control
same,T/C,"dose: 5.0 mg/kg/injection, schedule: Q01DX009 (ip), vehicle: distilled water + Tween-80",116 % of control
same,T/C,[13],114 % of control and 124 % of control
same,T/C,[14],114 % of control
same,T/C,[15],119 % of control
CCCC(NC)C(CC)CN (stereo not given),T/C,[3],93 % of control
same,T/C,[1],100 % of control
same,T/C,[2],110 % of control
same,T/C,[10],105 % of control
NC(C(=O)O)c1ccc(CBr)cc1 (stereo not given),T/C,[4],114 % of control
same,T/C,[12],111 % of control
same,T/C,[8],159 % of control
same,T/C,[9],155 % of control and 165 % of control
same,T/C,[6],150 % of control and 183 % of control
